Source: ChEMBL document CHEMBL4513161, “CO-ADD screening of MMV (CH) - Pandemic Response Box” (2021)
Values after ≈ are worked out from the molar mass of the structure shown. Structures can show the parent of a compound that is named as a salt.

Tests used:
HEK293 = assay: cells; assay type: functional, Homo sapiens, ATCC CRL1573; details: Homo sapiens, ATCC CRL1573, HEK293; ASSAY_TEST Inhibition of Cell Viability; detection method Resazurin; Fluorescence (ex560/em590); MEDIA DMEM with 10% FBS; plate type 384well; TC; CORNING #3712; time 18 hr; read-out: CC50
Pseudomonas aeruginosa [1] = assay: Antibacterial activity against Pseudomonas aeruginosa PAO397 [PAO1 d(mexAB-oprM) d(mexCD-oprJ) d(mexEF-oprN) d(mexJKL) d(mexXY) d(opmH)] (CO-ADD:GN_211); MIC in CAMBH media using NBS plates, by OD(600); assay type: functional; details: ASSAY_TEST Inhibition of Bacterial Growth, detection method Absorption (OD600), MEDIA CAMHB, plate type 384well, CORNING #3640, time 18 hr
Staphylococcus aureus = assay: microbe, parasite or virus in culture; details: ATCC 43300, 18 h, ASSAY_TEST Inhibition of Bacterial Growth, detection method Absorption (OD600), MEDIA CAMHB, plate type 384well, NBS, CORNING #3640
Description: Antibacterial activity against Staphylococcus aureus MRSA ATCC 43300 (CO-ADD:GP_020); MIC in CAMBH media, using NBS plates, by OD(600)

Escherichia coli = assay: microbe, parasite or virus in culture; details: ATCC 25922, 18 h, ASSAY_TEST Inhibition of Bacterial Growth, detection method Absorption (OD600), MEDIA CAMHB, plate type 384well, NBS, CORNING #3640
Description: Antibacterial activity against Escherichia coli ATCC 25922 (CO-ADD:GN_001); MIC in CAMBH media using NBS plates, by OD(600)

Klebsiella pneumoniae = assay: microbe, parasite or virus in culture; details: ATCC 700603, 18 h, ASSAY_TEST Inhibition of Bacterial Growth, detection method Absorption (OD600), MEDIA CAMHB, plate type 384well, NBS, CORNING #3640
Description: Antibacterial activity against Klebsiella pneumoniae MDR ATCC 70063 (CO-ADD:GN_003); MIC in CAMBH media using NBS plates, by OD(600)

Pseudomonas aeruginosa [2] = assay: microbe, parasite or virus in culture; details: ATCC 27853, 18 h, ASSAY_TEST Inhibition of Bacterial Growth, detection method Absorption (OD600), MEDIA CAMHB, plate type 384well, NBS, CORNING #3640
Description: Antibacterial activity against Pseudomonas aeruginosa ATCC 27853 (CO-ADD:GN_042); MIC in CAMBH media using NBS plates, by OD(600)

Acinetobacter baumannii = assay: microbe, parasite or virus in culture; details: ATCC 19606, 18 h, ASSAY_TEST Inhibition of Bacterial Growth, detection method Absorption (OD600), MEDIA CAMHB, plate type 384well, NBS, CORNING #3640
Description: Antibacterial activity against Acinetobacter baumannii ATCC 19606 (CO-ADD:GN_034); MIC in CAMBH media using NBS plates, by OD600

Candida albicans = assay: microbe, parasite or virus in culture; details: ATCC 90028, ASSAY_TEST Inhibition of Fungal Growth, detection method Absorption (OD530), plate type 384well, NBS, CORNING #3640
Description: Antifungal activity against Candida albicans ATCC 90028 (CO-ADD:FG_001); MIC in YNB media using NBS plates, by OD630

Description for Cryptococcus neoformans: Antifungal activity against Cryptococcus neoformans H99 ATCC 208821 (CO-ADD:FG_002); MIC in YNB media using NBS plates, by Resazurin OD(600-570)

| MIC (Pseudomonas aeruginosa [1]) | MIC (Cryptococcus neoformans) | MIC (Staphylococcus aureus) | MIC (Escherichia coli) | MIC (Klebsiella pneumoniae) | MIC (Pseudomonas aeruginosa [2]) | MIC (Acinetobacter baumannii) | MIC (Candida albicans) | Structure (SMILES) | CC50 (HEK293) |
| --- | --- | --- | --- | --- | --- | --- | --- | --- | --- |
| > 20 µM | > 20 µM | > 20 µM | > 20 µM | > 20 µM | > 20 µM | > 20 µM | > 20 µM | COc1ccc(SC(=O)N[C@H](CCC(=O)O)C(=O)O)cc1 | > 20 µM |
| > 20 µM | > 20 µM | > 20 µM | > 20 µM | > 20 µM | > 20 µM | > 20 µM | > 20 µM | CCc1c(O)nc2ccc(F)cc2c1OCC1CCC1 | > 20 µM |
| 20 µM | > 20 µM | > 20 µM | > 20 µM | > 20 µM | > 20 µM | > 20 µM | > 20 µM | CCC[C@@H]1C[C@@H](C(=O)N[C@@H]([C@H]2O[C@H](SC)[C@H](O)[C@@H](O)[C@H]2O)[C@H](C)Cl)N(C)C1 [CLINDAMYCIN HYDROCHLORIDE] | > 20 µM |
| > 20 µM | > 20 µM | > 20 µM | > 20 µM | > 20 µM | > 20 µM | > 20 µM | > 20 µM | CNC(=O)C1O[C@@H](n2cnc3c(NCc4cccc(I)c4)nc(Cl)nc32)[C@H](O)[C@@H]1O (stereo partly specified) | 18.3 µM |
| > 20 µM | > 20 µM | > 20 µM | > 20 µM | > 20 µM | > 20 µM | > 20 µM | > 20 µM | O=C(CCCC(F)(F)F)N1CCC(c2nc(-c3nccs3)no2)CC1 | > 20 µM |
| > 20 µM | > 20 µM | > 20 µM | > 20 µM | > 20 µM | > 20 µM | > 20 µM | > 20 µM | CCCCCCCCCN1C[C@@H](O)[C@H](O)[C@@H](O)[C@@H]1CO | > 20 µM |
| > 20 µM | > 20 µM | > 20 µM | > 20 µM | > 20 µM | > 20 µM | > 20 µM | > 20 µM | CC(C)(C)c1ccc(C(=O)NC(=O)N2CCCc3ccccc32)cc1 | > 20 µM |
| > 20 µM | > 20 µM | > 20 µM | > 20 µM | > 20 µM | > 20 µM | > 20 µM | > 20 µM | Nc1ccc2oc(=O)ccc2c1I | > 20 µM |
| > 20 µM | > 20 µM | > 20 µM | > 20 µM | > 20 µM | > 20 µM | > 20 µM | > 20 µM | Fc1ccc2c(/C=C/c3nnn[nH]3)c[nH]c2c1 | > 20 µM |
| > 20 µM | > 20 µM | > 20 µM | > 20 µM | > 20 µM | > 20 µM | > 20 µM | > 20 µM | O=C(O)C(Cc1c[nH]c2ccccc12)N1C(=O)c2ccccc2C1=O (stereo unspecified) | > 20 µM |
| > 20 µM | 5 µM (≈ 1.35 µg/mL) | > 20 µM | > 20 µM | > 20 µM | > 20 µM | > 20 µM | 5 µM (≈ 1.35 µg/mL) | O=C1C=C(c2ccccc2)S(=O)(=O)c2ccccc21 | 4.03 µM |
| > 20 µM | > 20 µM | > 20 µM | > 20 µM | > 20 µM | > 20 µM | > 20 µM | > 20 µM | C=C(C)n1c(=O)n(Cc2ccccc2C)c2ccccc21 | > 20 µM |
| > 20 µM | > 20 µM | > 20 µM | > 20 µM | > 20 µM | > 20 µM | > 20 µM | > 20 µM | O=P(O)(O)C(CCCc1cccc(Oc2ccccc2)c1)S(=O)(=O)O (stereo unspecified) | > 20 µM |
| > 20 µM | > 20 µM | > 20 µM | > 20 µM | > 20 µM | > 20 µM | > 20 µM | > 20 µM | Cc1[nH]c2ccccc2c1CCNCc1ccc(/C=C/C(=O)NO)cc1 [PANOBINOSTAT] | > 20 µM |
| > 20 µM | > 20 µM | > 20 µM | > 20 µM | > 20 µM | > 20 µM | > 20 µM | > 20 µM | Cc1ccc(S(=O)(=O)Nc2cccc3cccnc23)cc1 | 4.05 µM |
| > 20 µM | > 20 µM | > 20 µM | > 20 µM | > 20 µM | > 20 µM | > 20 µM | > 20 µM | FC(F)(F)c1cc(C(F)(F)F)c2ccc3nc(-c4nnco4)cn3c2n1 | > 20 µM |
| > 20 µM | > 20 µM | > 20 µM | > 20 µM | > 20 µM | > 20 µM | > 20 µM | > 20 µM | NC(=O)c1cnc2ccc(S(=O)(=O)c3ccccc3)cc2c1Nc1ccc(O)cc1 | > 20 µM |
| > 20 µM | > 20 µM | > 20 µM | > 20 µM | > 20 µM | > 20 µM | > 20 µM | > 20 µM | CC1(C)Cc2c(C#N)c(SCCc3ccccc3)nc(N3CCOCC3)c2CO1 | > 20 µM |
| > 20 µM | > 20 µM | > 20 µM | > 20 µM | > 20 µM | > 20 µM | > 20 µM | > 20 µM | O=C(c1nc2c(C(F)(F)F)cc(C3CC3)cn2c1Cl)N1CCN([C@H]2CC[C@H](O)CC2)C(=O)C1 | > 20 µM |
| > 20 µM | > 20 µM | > 20 µM | > 20 µM | > 20 µM | > 20 µM | > 20 µM | > 20 µM | NCc1ccc(S(N)(=O)=O)cc1 [MAFENIDE] | > 20 µM |
| > 20 µM | > 20 µM | > 20 µM | > 20 µM | > 20 µM | > 20 µM | > 20 µM | > 20 µM | Nc1cnn(C2OC(CO)C(O)C2O)c(=O)n1 (stereo unspecified) | > 20 µM |
| 20 µM (≈ 8.52 µg/mL) | > 20 µM | > 20 µM | > 20 µM | > 20 µM | > 20 µM | > 20 µM | > 20 µM | O=C(NO)C1(CS(=O)(=O)c2ccc(Oc3ccc(Cl)cc3)cc2)CCOCC1 [CTS-1027] | > 20 µM |
| > 20 µM | > 20 µM | > 20 µM | > 20 µM | > 20 µM | > 20 µM | > 20 µM | > 20 µM | COc1ccc(C2CNC(=O)C2)cc1OC1CCCC1 (stereo unspecified) [ROLIPRAM] | > 20 µM |
| > 20 µM | > 20 µM | > 20 µM | > 20 µM | > 20 µM | > 20 µM | > 20 µM | 0.312 µM (≈ 0.118 µg/mL) | Cc1ccc(Oc2ccccc2-c2csc(N=C3NCCCN3)n2)c(C)c1 [ABAFUNGIN] | > 20 µM |
| > 20 µM | > 20 µM | > 20 µM | > 20 µM | > 20 µM | > 20 µM | > 20 µM | > 20 µM | O=c1oc2ccc(Br)cc2cc1CSc1ncc[nH]1 | > 20 µM |
| > 20 µM | > 20 µM | > 20 µM | > 20 µM | > 20 µM | > 20 µM | > 20 µM | > 20 µM | CCCCc1ccc(S(=O)(=O)Nc2cc(C)on2)cc1 | > 20 µM |
| > 20 µM | > 20 µM | > 20 µM | > 20 µM | > 20 µM | > 20 µM | > 20 µM | > 20 µM | O=C(O)c1ccc(-c2ccc(O[C@H]3O[C@H](CO)[C@@H](O)[C@H](O)[C@@H]3O)cc2)cc1 | > 20 µM |
| > 20 µM | > 20 µM | > 20 µM | > 20 µM | > 20 µM | > 20 µM | > 20 µM | > 20 µM | CC#C[C@]1(O)CC[C@H]2[C@@H]3CCC4=CC(=O)CCC4=C3[C@@H](c3ccc(N(C)C)cc3)C[C@@]21C [MIFEPRISTONE] | > 20 µM |
| > 20 µM | > 20 µM | > 20 µM | > 20 µM | > 20 µM | > 20 µM | > 20 µM | > 20 µM | O=C(NCc1ccc(F)cc1)c1c(O)c2ncccc2[nH]c1=O | > 20 µM |
